Measured values taken from the NIST ThermoML archive (doi:10.1016/j.jct.2016.09.007).

Assay: xn = mol fraction of the nth substance listed
Settings: 93.2 kPa, Liquid; for speed of sound: Frequency=3 MHz, Sing-around technique in a fixed-path interferometer; for mass density: Vibrating tube method

CCCC(=O)[O-].CCCC[NH3+] [n-butylammonium butanoate] + CO
Settings | mass density, 293.15 K [kg/m3] | mass density, 298.15 K [kg/m3] | mass density, 303.15 K [kg/m3] | mass density, 308.15 K [kg/m3] | mass density, 313.15 K [kg/m3] | speed of sound, 293.15 K [m/s] | speed of sound, 298.15 K [m/s] | speed of sound, 303.15 K [m/s] | speed of sound, 308.15 K [m/s] | speed of sound, 313.15 K [m/s]
x1 = 0.0503 | 827.536 | 823.196 | 818.837 | 814.456 | 810.048 | 1187.9 | 1171.5 | 1155.3 | 1139.3 | 1123.3
x1 = 0.0999 | 850.303 | 846.198 | 842.076 | 837.934 | 833.767 | 1233.9 | 1217.6 | 1201.5 | 1185.5 | 1169.7
x1 = 0.1491 | 866.376 | 862.414 | 858.459 | 854.49 | 850.482 | 1268.2 | 1251.9 | 1235.9 | 1219.9 | 1204.1
x1 = 0.2011 | 878.773 | 874.958 | 871.116 | 867.265 | 863.431 | 1295.6 | 1279.4 | 1263.3 | 1247.4 | 1231.6
x1 = 0.2525 | 888.142 | 884.423 | 880.696 | 876.953 | 873.199 | 1316.7 | 1300.5 | 1284.4 | 1268.5 | 1252.7
x1 = 0.3057 | 895.564 | 891.923 | 888.274 | 884.609 | 880.93 | 1333.9 | 1317.8 | 1301.7 | 1285.8 | 1270
x1 = 0.3476 | 900.631 | 896.968 | 893.253 | 889.68 | 886.019 | 1345.6 | 1329.3 | 1313.2 | 1297.2 | 1281.4
x1 = 0.3966 | 905.316 | 901.759 | 898.192 | 894.632 | 891.1 | 1356.4 | 1340.1 | 1324 | 1308 | 1292.1
x1 = 0.4491 | 909.413 | 905.905 | 902.401 | 898.901 | 895.415 | 1366.1 | 1349.7 | 1333.5 | 1317.5 | 1301.7
x1 = 0.501 | 912.93 | 909.441 | 905.946 | 902.476 | 899.051 | 1374.4 | 1358 | 1341.8 | 1325.7 | 1310
x1 = 0.541 | 915.316 | 911.864 | 908.414 | 904.968 | 901.531 | 1380.2 | 1363.7 | 1347.4 | 1331.3 | 1315.4
x1 = 0.5913 | 917.715 | 914.276 | 910.846 | 907.442 | 904.079 | 1386 | 1369.4 | 1353.1 | 1336.9 | 1321
x1 = 0.6445 | 920.109 | 916.724 | 913.329 | 909.923 | 906.495 | 1391.7 | 1374.9 | 1358.5 | 1342.3 | 1326.3
x1 = 0.6895 | 921.905 | 918.523 | 915.128 | 911.737 | 908.371 | 1396.6 | 1379.8 | 1363.2 | 1346.9 | 1330.8
x1 = 0.7391 | 923.626 | 920.287 | 916.93 | 913.559 | 910.183 | 1401.3 | 1384.2 | 1367.4 | 1350.9 | 1334.8
x1 = 0.8007 | 925.47 | 922.166 | 918.855 | 915.534 | 912.194 | 1407.1 | 1389.5 | 1372.5 | 1355.8 | 1339.5
x1 = 0.8243 | 926.211 | 922.909 | 919.611 | 916.299 | 912.971 | 1409.6 | 1391.8 | 1374.6 | 1357.8 | 1341.4
x1 = 0.8973 | 927.898 | 924.584 | 921.292 | 918.007 | 914.707 | 1416.7 | 1398 | 1380.2 | 1362.9 | 1346.2
x1 = 0.932 | 928.804 | 925.491 | 922.195 | 918.913 | 915.625 | 1420.3 | 1401.2 | 1383 | 1365.5 | 1348.5
x1 = 1 | 928.794 | 925.509 | 922.217 | 918.88 | 915.567 | 1431.5 | 1410.3 | 1390.4 | 1371.5 | 1353.6
